For 28 compounds, Reactors/Test group and ED50 results are on record in ChEMBL document CHEMBL1122257, “Synthesis and anticonvulsant activity of some tetracyclic indole derivatives” (1983).

What all share (format): functional
Assay [1] concerns Rattus norvegicus. Kind of assay: Tested for anticonvulsant activity in 3 rats after oral administration of 30 mg/kg po dose for protection against maximal electroshock in rat MES test; 0/3. On the technique in general: The maximal electroshock test induces tonic seizures with an electrical stimulus.
The test system of assay [2] is Rattus norvegicus. In words: Tested anticonvulsant activity in 6 rats after oral administration of 30 mg/kg po dose for rotarod performance; 0/6. In general terms: In the rotarod test animals must keep their balance on a rotating rod.
Assay [3] has as its system Rattus norvegicus. In words: Tested anticonvulsant activity in 6 rats after oral administration of 30 mg/kg po dose for rotarod performance; 1/6.
Assay [4] has as its system Rattus norvegicus. In words: Tested for anticonvulsant activity in 3 rats after oral administration of 30 mg/kg po dose for protection against maximal electroshock in rat MES test; 1/3.
In assay [5] the test system is Rattus norvegicus. Kind of assay: Tested for anticonvulsant activity in 3 rats after oral administration of 30 mg/kg po dose for protection against maximal electroshock in rat MES test; 3/3.
For assay [6], the system named is Rattus norvegicus. In words: Anticonvulsant activity in rats after oral administration of 30 mg/kg dose(effective dosage).
In assay [7] the test system is Rattus norvegicus. In words: Anticonvulsant activity in rats after oral administration of 30 mg/kg dose for rotarod performance; 0/6.
The test system of assay [8] is Rattus norvegicus. In words: Tested anticonvulsant activity in 6 rats after oral administration of 300 mg/kg po dose for rotarod performance; 0/6.
Assay [9] relates to Rattus norvegicus. In words: Tested for anticonvulsant activity in 3 rats after oral administration of 30 mg/kg po dose for protection against maximal electroshock in rat MES test; 2/3.

Consider `CN(C)CC1Cc2cccc3c4c(n1c23)CCCCCC4` (stereo unspecified), for which the Reactors/Test group in assay [1] and in assay [2] was 0 in each case.

Consider `CN(C)CC1CCc2cccc3c4c(n1c23)-c1ccccc1SC4` (stereo unspecified), for which the Reactors/Test group in [1] and in [2] was 0 each time.

`CN1CCN(C(=O)C2CCc3cccc4c5c(n2c34)CCCCC5)CC1` (stereo unspecified): the Reactors/Test group in assay [1] and in assay [2] was 0 in each case.

Consider `CN(C)CC1CCc2cccc3c4c(n1c23)-c1ccccc1CC4` (stereo unspecified), for which the Reactors/Test group in [3] and in assay [4] was 1 throughout.

On to `CN(C)CC1CCc2cccc3c4c(n1c23)CCCCCC4` (stereo unspecified), for which the Reactors/Test group in assay [1] and in assay [2] was 0 in each case.

For `CN(C)CC1CCc2cccc3c4c(n1c23)CCC4` (stereo unspecified), the results for the Reactors/Test group in assay [5] and in assay [2] were 3 and 0, respectively. Further, the ED50 – broadly, the dose at which the effect has come halfway, by size or by number of responders – in assay [6] stood at 12.5 mg/kg.

`O=C1NC(=O)C(c2ccccc2)(c2ccccc2)N1` [PHENYTOIN] gave an ED50 in assay [6] of 42.3 mg/kg. The compound further gave a Reactors/Test group in assay [7] of 0.

On to `CNC(=O)C1CCc2cccc3c4c(n1c23)CCCCC4` (stereo unspecified), for which the results for the Reactors/Test group in [5] and in [2] were 3 and 0, respectively. In [6], this compound returned an ED50 of 12.9 mg/kg.

As to `CN(C)CC1Cc2cccc3c4c(n1c23)CCCC4` (stereo unspecified), the Reactors/Test group in assay [5] stood at 3; in assay [2], 0. Besides, in assay [6], the 50% effective dose (ED50) is 19.2 mg/kg.

Consider `CN(C)CCC1CCc2cccc3c4c(n1c23)CCC4` (stereo unspecified), for which the Reactors/Test group in assay [1] and in [2] was 0 each time.

In the case of `CN(C)CCC1CCc2cccc3c4c(n1c23)CCN(C)C4` (stereo unspecified), the Reactors/Test group in assay [1] and in assay [2] was 0 throughout.

Turning to `CN(C)CC1CCc2cccc3c4c(n1c23)CCCC4` (stereo unspecified), the Reactors/Test group in assay [5] is listed as 3; in assay [8], 0.

Take `CN(C)CC1Cc2cccc3c4c(n(c23)C1)Cc1ccccc1-4` (stereo unspecified): the Reactors/Test group in assay [1] worked out at 0; in assay [3], 1.

As to `CN(C)CC1Cc2cccc3c4c(n(c23)C1)CCCCC4` (stereo unspecified), the Reactors/Test group in [1] and in [2] was 0 each time.

As for `CN(C)C(=O)C1CCc2cccc3c4c(n1c23)CCCCC4` (stereo unspecified), the Reactors/Test group in assay [1] and in assay [2] was 0 each time.

With `CNC(=O)C1CCc2cccc3c4c(n1c23)CCC4` (stereo unspecified), the Reactors/Test group in [1] and in [2] was 0 in each case.

For the compound `CN(C)CCC1CCc2cccc3c4c(n1c23)CCCCCC4` (stereo unspecified), the Reactors/Test group in [1] and in assay [2] was 0 each time.

As to `CN(C)CC1Cn2c3c(c4cccc1c42)CCCCC3` (stereo unspecified), the Reactors/Test group in assay [1] and in assay [2] was 0 throughout.

Turning to `CN(C)CC1Cc2cccc3c4c(n1c23)CCCCC4` (stereo unspecified), the Reactors/Test group in [1] and in [2] was 0 in each case.

Regarding `CNCC1CCc2cccc3c4c(n1c23)CCCCC4` (stereo unspecified), the Reactors/Test group in assay [1] and in assay [2] was 0 throughout.

Consider `CN(C)CC1Cn2c3c(c4cccc1c42)CCCCCC3` (stereo unspecified), for which the Reactors/Test group in assay [1] and in [2] was 0 throughout.

For the compound `CN(C)CCC1CCc2cccc3c4c(n1c23)CCSC4` (stereo unspecified), the Reactors/Test group in assay [1] was 0; in assay [3], 1.

As to `CN(C)CC1CCc2cccc3c4c(n1c23)CCCCC4` (stereo unspecified), in assay [6], the ED50 stood at 78.9 mg/kg. Moreover, the Reactors/Test group is 2 in [9] and 0 in [2].

With `CN(C)CC1Cc2cccc3c4c(n(c23)C1)CCCCCC4` (stereo unspecified), the Reactors/Test group in assay [1] is reported as 0; in assay [3], 1.

As for `CN(C)CCC1CCc2cccc3c4c(n1c23)CCCCC4` (stereo unspecified), the Reactors/Test group in assay [5] came to 3; in [2] it was 0. In assay [6], this compound returned a 50% effective dose (ED50) of 27.4 mg/kg.

For `CN(C)CCC1CCc2cccc3c4c(n1c23)CCCC4` (stereo unspecified), the Reactors/Test group in assay [9] was 2; in assay [2] it was 0.

As for `CNC(=O)C1CCc2cccc3c4c(n1c23)CCCC4` (stereo unspecified), the Reactors/Test group in assay [1] and in assay [2] was 0 each time.

As for `CN(C)CC1CCc2cccc3c4c(n1c23)CCSC4` (stereo unspecified), the Reactors/Test group in [1] and in assay [2] was 0 in each case.
